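These data come from cells grown in 96-well plates and exposed to compound for 48 hours at five concentrations. GI50: concentration for 50% inhibition of growth.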 Activity calls are given as the source filed them. Rule as the data show it: active = GI50 up to about 1.1 µM and inactive = higher.
How the values were obtained:
Test in all cases: growth of human tumour cells (NCI), 48 h
CCRF-CEM = tested on: CCRF-CEM
U-251 = tested on: U-251
SNB-75 = tested on: SNB-75
UO-31 = tested on: UO-31
HCT-15 = tested on: HCT-15
COLO 205 = tested on: COLO 205
SF-539 = tested on: SF-539
RPMI-8226 = tested on: RPMI-8226
786-0 = tested on: 786-0
OVCAR-5 = tested on: OVCAR-5
EKVX = tested on: EKVX
RXF 393 = tested on: RXF 393
UACC-62 = tested on: UACC-62
A549 = tested on: A549
HOP-62 = tested on: HOP-62
OVCAR-8 = tested on: OVCAR-8
HOP-92 = tested on: HOP-92
PC-3 = tested on: PC-3
SK-MEL-28 = tested on: SK-MEL-28
SF-268 = tested on: SF-268

Structure (SMILES) | GI50 (CCRF-CEM) | GI50 (U-251) | GI50 (SNB-75) | GI50 (UO-31) | GI50 (HCT-15) | GI50 (COLO 205) | GI50 (SF-539) | GI50 (RPMI-8226) | GI50 (786-0) | GI50 (OVCAR-5) | GI50 (EKVX) | GI50 (RXF 393) | GI50 (UACC-62) | GI50 (A549) | GI50 (HOP-62) | GI50 (OVCAR-8) | GI50 (HOP-92) | GI50 (PC-3) | GI50 (SK-MEL-28) | GI50 (SF-268)
Cc1cccc(C)c1NC(=O)CCC(=O)NC(N)=S | > 100 µM (inactive) | > 100 µM (inactive) | > 100 µM (inactive) | > 100 µM (inactive) | > 100 µM | > 100 µM (inactive) | > 100 µM (inactive) | > 100 µM (inactive) | > 100 µM (inactive) | > 100 µM (inactive) | > 100 µM (inactive) | > 100 µM (inactive) | > 100 µM (inactive) | > 100 µM (inactive) | > 100 µM (inactive) | > 100 µM (inactive) | > 100 µM (inactive) | – | – | –
CC(=O)Nc1ccccc1S(=O)(=O)c1c(-c2c(C)c(Cl)c(C)c(Cl)c2C)noc1C | 27.8 µM (inactive) | 31.6 µM (inactive) | 12.4 µM (inactive) | > 100 µM (inactive) | > 100 µM | > 100 µM (inactive) | – | 29.2 µM (inactive) | 18.4 µM (inactive) | > 100 µM (inactive) | 48.9 µM (inactive) | 28.8 µM (inactive) | 28.9 µM (inactive) | 60.1 µM (inactive) | 19.7 µM (inactive) | 37 µM (inactive) | – | 35.1 µM (inactive) | > 100 µM (inactive) | 75.2 µM (inactive)
CC1SC(=O)SC1C (stereo unspecified) | > 100 µM (inactive) | > 100 µM (inactive) | > 100 µM (inactive) | > 100 µM (inactive) | > 100 µM | > 100 µM (inactive) | > 100 µM (inactive) | > 100 µM (inactive) | > 100 µM (inactive) | > 100 µM (inactive) | > 100 µM (inactive) | – | – | > 100 µM (inactive) | > 100 µM (inactive) | > 100 µM (inactive) | – | > 100 µM (inactive) | > 100 µM (inactive) | > 100 µM (inactive)
O=C1CSC(Cc2nc3ccccc3[nH]2)=N1 | 6.4 µM (inactive) | 17.3 µM (inactive) | 17.1 µM (inactive) | 20.6 µM (inactive) | 17.5 µM | 23.5 µM (inactive) | 20.7 µM (inactive) | 13.7 µM (inactive) | 17.1 µM (inactive) | 28.8 µM (inactive) | 33.7 µM (inactive) | 18.7 µM (inactive) | 15.1 µM (inactive) | 21.6 µM (inactive) | 22.3 µM (inactive) | 23.5 µM (inactive) | 29.9 µM (inactive) | – | 16 µM (inactive) | 16.7 µM (inactive)
COc1ccc(OC)c2c(C(C)=O)cccc12 | > 100 µM (inactive) | > 100 µM (inactive) | – | > 100 µM (inactive) | > 100 µM | > 100 µM (inactive) | > 100 µM (inactive) | > 100 µM (inactive) | > 100 µM (inactive) | > 100 µM (inactive) | > 100 µM (inactive) | > 100 µM (inactive) | > 100 µM (inactive) | > 100 µM (inactive) | > 100 µM (inactive) | > 100 µM (inactive) | – | > 100 µM (inactive) | > 100 µM (inactive) | > 100 µM (inactive)
CC(Cc1ccc(Cl)cc1Cl)NO (stereo unspecified) | > 100 µM (inactive) | > 100 µM (inactive) | 94 µM (inactive) | > 100 µM (inactive) | > 100 µM | > 100 µM (inactive) | – | 78 µM (inactive) | > 100 µM (inactive) | > 100 µM (inactive) | 58.2 µM (inactive) | > 100 µM (inactive) | > 100 µM (inactive) | > 100 µM (inactive) | > 100 µM (inactive) | > 100 µM (inactive) | – | > 100 µM (inactive) | > 100 µM (inactive) | > 100 µM (inactive)
C=C1CCCC2OC(OC)CCC12 (stereo unspecified) | > 100 µM (inactive) | > 100 µM (inactive) | > 100 µM (inactive) | > 100 µM (inactive) | > 100 µM | > 100 µM (inactive) | > 100 µM (inactive) | > 100 µM (inactive) | > 100 µM (inactive) | > 100 µM (inactive) | > 100 µM (inactive) | > 100 µM (inactive) | > 100 µM (inactive) | > 100 µM (inactive) | > 100 µM (inactive) | > 100 µM (inactive) | > 100 µM (inactive) | – | – | > 100 µM (inactive)
CSCC[C@@H](NC(=O)[C@H](CC(C)C)NC(=O)C(Cc1cnc[nH]1)NC(=O)CNC(=O)[C@@H](NC(=O)[C@H](C)NC(=O)[C@H](Cc1c[nH]c2ccccc12)NC(=O)[C@H](CCC(N)=O)NC(=O)[C@@H](N)CC(N)=O)C(C)C)C(N)=O (stereo partly specified) | > 100 µM (inactive) | > 100 µM (inactive) | > 100 µM (inactive) | > 100 µM (inactive) | > 100 µM | > 100 µM (inactive) | > 100 µM (inactive) | > 100 µM (inactive) | – | > 100 µM (inactive) | > 100 µM (inactive) | > 100 µM (inactive) | > 100 µM (inactive) | > 100 µM (inactive) | > 100 µM (inactive) | > 100 µM (inactive) | > 100 µM (inactive) | – | > 100 µM (inactive) | > 100 µM (inactive)
Oc1ccc(/C=N/N=c2\[nH][nH]/c(=N\N=C\c3ccc(O)cc3O)c3ccccc23)c(O)c1 | 0.345 µM (active) | 0.2 µM (active) | – | 0.388 µM (active) | 0.244 µM | 0.581 µM (active) | 0.294 µM (active) | 0.3 µM (active) | 0.378 µM (active) | 0.422 µM (active) | 0.211 µM (active) | – | 0.234 µM (active) | 0.315 µM (active) | 0.304 µM (active) | 0.25 µM (active) | – | 0.375 µM (active) | – | 0.126 µM (active)
Nc1nc(=O)c(/N=N/c2ccc([As](=O)(O)O)cc2)c(N)[nH]1 | > 100 µM (inactive) | > 100 µM (inactive) | > 100 µM (inactive) | > 100 µM (inactive) | > 100 µM | > 100 µM (inactive) | – | > 100 µM (inactive) | > 100 µM (inactive) | > 100 µM (inactive) | > 100 µM (inactive) | > 100 µM (inactive) | > 100 µM (inactive) | > 100 µM (inactive) | > 100 µM (inactive) | > 100 µM (inactive) | – | > 100 µM (inactive) | > 100 µM (inactive) | > 100 µM (inactive)
O=P1(Oc2ccc(Cl)cc2Cl)Oc2cc3ccccc3cc2O1 | 35.5 µM (inactive) | 81.7 µM (inactive) | 70.8 µM (inactive) | 24.9 µM (inactive) | 50 µM | 97.9 µM (inactive) | > 84.9 µM (inactive) | 18.8 µM (inactive) | – | > 100 µM (inactive) | 33.9 µM (inactive) | > 58.9 µM (inactive) | 43.7 µM (inactive) | 66.2 µM (inactive) | 71.8 µM (inactive) | 69 µM (inactive) | 28.5 µM (inactive) | – | > 100 µM (inactive) | > 100 µM (inactive)
CCC(COC(=O)CC[C@@H](NC(=O)C(C)NC(=O)C(C)OC1C(O)C(CO)OC(OCc2ccccc2)C1NC(C)=O)C(N)=O)NC1c2ccccc2Nc2cccc([N+](=O)[O-])c21 (stereo partly specified) | > 100 µM (inactive) | > 100 µM (inactive) | 94.8 µM (inactive) | > 100 µM (inactive) | > 100 µM | > 100 µM (inactive) | > 100 µM (inactive) | > 100 µM (inactive) | 67.1 µM (inactive) | > 100 µM (inactive) | > 100 µM (inactive) | 37.4 µM (inactive) | > 100 µM (inactive) | > 100 µM (inactive) | > 100 µM (inactive) | > 100 µM (inactive) | > 100 µM (inactive) | – | > 100 µM (inactive) | > 100 µM (inactive)
O=C(CCc1nnc(S)[nH]1)Nc1cccc(C(F)(F)F)c1 | > 100 µM (inactive) | > 100 µM (inactive) | > 100 µM (inactive) | > 100 µM (inactive) | > 100 µM | 80 µM (inactive) | > 100 µM (inactive) | > 100 µM (inactive) | > 100 µM (inactive) | > 100 µM (inactive) | > 100 µM (inactive) | > 100 µM (inactive) | > 100 µM (inactive) | > 100 µM (inactive) | > 100 µM (inactive) | > 100 µM (inactive) | > 100 µM (inactive) | – | > 100 µM (inactive) | > 100 µM (inactive)
CC(O)/C=C/C(CCC(C)CO)C(C)C (stereo unspecified) | > 100 µM (inactive) | > 100 µM (inactive) | > 100 µM (inactive) | > 100 µM (inactive) | > 100 µM | > 100 µM (inactive) | > 100 µM (inactive) | > 100 µM (inactive) | > 100 µM (inactive) | > 100 µM (inactive) | > 100 µM (inactive) | > 100 µM (inactive) | > 100 µM (inactive) | > 100 µM (inactive) | > 100 µM (inactive) | > 100 µM (inactive) | > 100 µM (inactive) | – | > 100 µM (inactive) | > 100 µM (inactive)
COC(=O)C12CC(c3ccccc31)C1C(=O)OC(=O)C12 (stereo unspecified) | > 100 µM (inactive) | > 100 µM (inactive) | 17.5 µM (inactive) | > 100 µM (inactive) | > 100 µM | > 100 µM (inactive) | > 100 µM (inactive) | > 100 µM (inactive) | > 100 µM (inactive) | > 100 µM (inactive) | > 100 µM (inactive) | > 100 µM (inactive) | > 100 µM (inactive) | > 100 µM (inactive) | > 100 µM (inactive) | > 100 µM (inactive) | > 100 µM (inactive) | – | > 100 µM (inactive) | > 100 µM (inactive)
